The subject of the assay is HT29 cells. The assay can be described thus: Inhibition of cell necrosis (CCK8 method), induced programmed necrosis of HT29 cells. The conditions noted are these: Homo sapiens, HT-29; rescue from necrosis induced by TNF-α 20 ng/mL, AT-406 1 μM, Z-VAD-FMK 20 μM; 16-20 hours; CCK-8, OD 450 nm. It is filed as cell-based. In short, it runs like this: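 HT29 cells in McCOY's 5A with 10% FBS were pre-treated for 30 min with compound (9 fourfold steps, 25000 to 0.38 nM final, 0.25% DMSO). Necrosis was then induced with TNF-α 20 ng/mL, AT-406 1 μM and Z-VAD-FMK 20 μM for 16-20 h. Viability was read by CCK-8 OD450, normalized between uninduced and induced wells, and IC50 was curve-fitted.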

As usually defined, the IC50 is the concentration that inhibits the measured activity by half.

The structures appear in SMILES notation.

In turn, `COCCCOc1ccc(C)c(-c2ccnc(NC(=O)c3nnc(CC4CCCCC4)[nH]3)c2)c1` [Example 145, 5-(cyclohexylmethyl)-N-(4-(5-(3-methoxypropoxy)-2-methylphenyl)pyridin-2-yl)-4H-1,2,4-triazole-3-carboxamide] displayed an IC50 of at most 0.1 µM.

With `COCCCOc1ccc(C)c(-c2ccnc(NC(=O)c3nnc(Cc4ccccc4)s3)c2)c1` [Example 146, 5-benzyl-N-(4-(5-(3-methoxypropoxy)-2-methylphenyl)pyridin-2-yl)-1,3,4-thiodiazol-2-carboxamide], the IC50 was in the range of 1 to 10 µM. With `CCOCCCOc1ccc(C)c(-c2ccnc(NC(=O)c3nnc(Cc4ccccc4)[nH]3)c2)c1` [Example 147, 5-benzyl-N-(4-(5-(3-ethoxypropoxy)-2-methylphenyl)pyridin-2-yl)-4H-1,2,4-triazole-3-carboxamide] the figure was at most 0.1 µM. Then `Cc1ccc(OCCCC#N)cc1-c1ccnc(NC(=O)c2nnc(Cc3ccccc3)[nH]2)c1` [Example 148, 5-benzyl-N-(4-(5-(3-cyanopropoxy)-2-methylphenyl)pyridin-2-yl)-4H-1,2,4-triazole-3-carboxamide], with at most 0.1 µM; and `C=CCCCOc1ccc(C)c(-c2ccnc(NC(=O)c3nnc(Cc4ccccc4)[nH]3)c2)c1` [Example 149, 5-benzyl-N-(4-(2-methyl-5-(pent-4-en-1-yloxy)phenyl)pyridin-2-yl)-4H-1,2,4-triazole-3-carboxamide], with at most 0.1 µM; and `CSCCCCOc1ccc(C)c(-c2ccnc(NC(=O)c3nnc(Cc4ccccc4)[nH]3)c2)c1` [Example 150, 5-benzyl-N-(4-(2-methyl-5-(4-(methylthio)butoxy)phenyl)pyridin-2-yl)-4H-1,2,4-triazole-3-carboxamide], with at most 0.1 µM. Then `Cc1ccc(OCCCCO)cc1-c1ccnc(NC(=O)c2nnc(Cc3ccccc3)[nH]2)c1` [Example 151, 5-benzyl-N-(4-(5-(4-hydroxybutoxy)-2-methylphenyl)pyridin-2-yl)-4H-1,2,4-triazole-3-carboxamide], with at most 0.1 µM. `COCCCCOc1ccc(C)c(-c2ccnc(NC(=O)c3nnc(Cc4ccccc4)[nH]3)c2)c1` [Example 152, 5-benzyl-N-(4-(5-(4-methoxybutoxy)-2-methylphenyl)pyridin-2-yl)-4H-1,2,4-triazole-3-carboxamide] yielded an IC50 of at most 0.1 µM. The compound `Cc1ccc(OCCCCCO)cc1-c1ccnc(NC(=O)c2nnc(Cc3ccccc3)[nH]2)c1` [Example 153, 5-benzyl-N-(4-(5-((5-hydroxylpentyl)oxy)-2-methylphenyl)pyridin-2-yl)-4H-1,2,4-triazole-3-carboxamide] gave a half-inhibitory concentration (IC50) of at most 0.1 µM.

In the case of `Cc1ccc(OCCCCCCCCO)cc1-c1ccnc(NC(=O)c2nnc(Cc3ccccc3)[nH]2)c1` [Example 154, 5-benzyl-N-(4-(5-((8-hydroxyoctyl)oxy)-2-methylphenyl)pyridin-2-yl)-4H-1,2,4-triazole-3-carboxamide], the 50% inhibitory concentration (IC50) is at most 0.1 µM.

`Cc1ccc(OC2CC2)cc1-c1ccnc(NC(=O)c2nnc(Cc3ccccc3)[nH]2)c1` [Example 155, 5-benzyl-N-(4-(5-cyclopropoxy-2-methylphenyl)pyridin-2-yl)-4H-1,2,4-triazole-3-carboxamide]: the IC50 lay within 0.1 to 1 µM. With `Cc1ccc(OC2CCC2)cc1-c1ccnc(NC(=O)c2nnc(Cc3ccccc3)[nH]2)c1` [Example 156, 5-benzyl-N-(4-(5-cyclobutoxy-2-methylphenyl)pyridin-2-yl)-4H-1,2,4-triazole-3-carboxamide] the figure was 0.1 to 1 µM; with `Cc1ccc(OCCCC(N)=O)cc1-c1ccnc(NC(=O)c2nnc(Cc3ccccc3)[nH]2)c1` [Example 157, N-(4-(5-(4-amino-4-oxobutoxy)-2-methylphenyl)pyridin-2-yl)-5-benzyl-4H-1,2,4-triazole-3-carboxamide], 0.1 to 1 µM; with `Cc1ccc(C(N)=O)cc1-c1ccnc(NC(=O)c2nnc(Cc3ccccc3)[nH]2)c1` [Example 158, 5-benzyl-N-(4-(5-carbamoyl-2-methylphenyl)pyridin-2-yl)-4H-1,2,4-triazole-3-carboxamide], 1 to 10 µM. `Cc1ccc(OCC2(O)CC2)cc1-c1ccnc(NC(=O)c2nnc(Cc3ccccc3)[nH]2)c1` [Example 159, 5-benzyl-N-(4-(5-((1-hydroxycyclopropyl)methoxy)-2-methylphenyl)pyridin-2-yl)-4H-1,2,4-triazole-3-carboxamide]: the IC50 was at most 0.1 µM. Then `Cc1ccc(OCCCC(C)(C)O)cc1-c1ccnc(NC(=O)c2nnc(Cc3ccccc3)[nH]2)c1` [Example 160, 5-benzyl-N-(4-(5-((4-hydroxy-4-methylpentyl)oxy)-2-methylphenyl)pyridin-2-yl)-4H-1,2,4-triazole-3-carboxamide], with at most 0.1 µM; and `Cc1cc(C(C)(C)O)ccc1-c1ccnc(NC(=O)c2nnc(Cc3ccccc3)[nH]2)c1` [Example 161, 5-benzyl-N-(4-(4-(2-hydroxypropan-2-yl)-2-methylphenyl)pyridin-2-yl)-4H-1,2,4-triazole-3-carboxamide], with 0.1 to 1 µM; and `CC(=O)c1ccc(-c2ccnc(NC(=O)c3nnc(Cc4ccccc4)[nH]3)c2)c(C)c1` [Example 162, N-(4-(4-acetyl-2-methylphenyl)pyridin-2-yl)-5-benzyl-4H-1,2,4-triazole-3-carboxamide], with 0.1 to 1 µM. `Cc1ccc(OCCCC2(O)CCCC2)cc1-c1ccnc(NC(=O)c2nnc(Cc3ccccc3)[nH]2)c1` [Example 163, 5-benzyl-N-(4-(5-(3-(1-hydroxycyclopentyl)propoxy)-2-methylphenyl)pyridin-2-yl)-4H-1,2,4-triazole-3-carboxamide] registered an IC50 of at most 0.1 µM. `Cc1ccc(OCCCC2(O)CCCCC2)cc1-c1ccnc(NC(=O)c2nnc(Cc3ccccc3)[nH]2)c1` [Example 164, 5-benzyl-N-(4-(5-(3-(1-hydroxycyclohexyl)propoxy)-2-methylphenyl)pyridin-2-yl)-4H-1,2,4-triazole-3-carboxamide] registered an IC50 of at most 0.1 µM.

Regarding `CCC(O)(CC)CCCOc1ccc(C)c(-c2ccnc(NC(=O)c3nnc(Cc4ccccc4)[nH]3)c2)c1` [Example 165], the IC50 is at most 0.1 µM. With `CCC(O)(CC)CCCOc1ccc(C)c(-c2ccnc(NC(=O)c3nnc(CC4CCCC4)[nH]3)c2)c1` [Example 166, 5-(cyclopentylmethyl)-N-(4-(5-((4-ethyl-4-hydroxyhexyl)oxy)-2-methylphenyl)pyridin-2-yl)-4H-1,2,4-triazole-3-carboxamide] the figure was at most 0.1 µM; with `Cc1ccc(OCCCCC(C)(C)O)cc1-c1ccnc(NC(=O)c2nnc(Cc3ccccc3)[nH]2)c1` [Example 167, 5-benzyl-N-(4-(5-((5-hydroxyl-5-methylhexyl)oxy)-2-methylphenyl)pyridin-2-yl)-4H-1,2,4-triazole-3-carboxamide], at most 0.1 µM. Then `Cc1ccc(N(C)CCCC(C)(C)O)cc1-c1ccnc(NC(=O)c2nnc(Cc3ccccc3)[nH]2)c1` [Example 168], with 0.1 to 1 µM.

Take `Cc1ccc(OCCCC(C)(C)O)cc1-c1ccnc(NC(=O)c2nnc(CC(C)C)[nH]2)c1` [Example 169, N-(4-(5-((4-hydroxy-4-methylpentyl)oxy)-2-methylphenyl)pyridin-2-yl)-5-isobutyl-4H-1,2,4-triazole-3-carboxamide]: the IC50 is at most 0.1 µM. For the compound `Cc1ccc(OCCCC(C)(C)O)cc1-c1ccnc(NC(=O)c2nnc(CC(C)(C)C)[nH]2)c1` [Example 170, N-(4-(5-((4-hydroxy-4-methylpentyl)oxy)-2-methylphenyl)pyridin-2-yl)-5-neopentyl-4H-1,2,4-triazole-3-carboxamide], the IC50 was 0.1 to 1 µM. Compound `Cc1ccc(OCCCC(C)(C)O)cc1-c1ccnc(NC(=O)c2nnc(CC3CC3)[nH]2)c1` [Example 171, 5-(cyclopropylmethyl)-N-(4-(5-((4-hydroxy-4-methylpentyl)oxy)-2-methylphenyl)pyridin-2-yl)-4H-1,2,4-triazole-3-carboxamide] showed an IC50 of 0.1 to 1 µM. The compound `Cc1ccc(OCCCC(C)(C)O)cc1-c1ccnc(NC(=O)c2nnc(CC3CCC3)[nH]2)c1` [Example 172, 5-(cyclobutylmethyl)-N-(4-(5-((4-hydroxy-4-methylpentyl)oxy)-2-methylphenyl)pyridin-2-yl)-4H-1,2,4-triazole-3-carboxamide] yielded a half-inhibitory concentration (IC50) of at most 0.1 µM.

For `Cc1ccc(OCCCC(C)(C)O)cc1-c1ccnc(NC(=O)c2nnc(CC3CCCC3)[nH]2)c1` [Example 173, 5-(cyclopentylmethyl)-N-(4-(5-((4-hydroxy-4-methylpentyl)oxy)-2-methylphenyl)pyridin-2-yl)-4H-1,2,4-triazole-3-carboxamide], the IC50 is at most 0.1 µM. In the case of `Cc1ccc(OCCCC(C)(C)O)cc1-c1ccnc(NC(=O)c2nnc(CC3CCCC3)o2)c1` [Example 174, 5-(cyclopentylmethyl)-N-(4-(5-((4-hydroxy-4-methylpentyl)oxy)-2-methylphenyl)pyridin-2-yl)-4H-1,3,4-oxadiazole-2-carboxamide], the IC50 lay within 0.1 to 1 µM.

With `Cc1ccc(OCCCC(C)(C)O)cc1-c1ccnc(NC(=O)c2nnc(CC3CCCCC3)[nH]2)c1` [Example 175, 5-(cyclohexylmethyl)-N-(4-(5-((4-hydroxy-4-methylpentyl)oxy)-2-methylphenyl)pyridin-2-yl)-4H-1,2,4-triazole-3-carboxamide], the IC50 is at most 0.1 µM. Consider `Cc1ccc(OCCCC(C)(C)O)cc1-c1ccnc(NC(=O)c2nnc(CCC3CCCC3)[nH]2)c1` [Example 176, 5-(2-cyclopentylethyl)-N-(4-(5-((4-hydroxy-4-methylpentyl)oxy)-2-methylphenyl)pyridin-2-yl)-4H-1,2,4-triazole-3-carboxamide], for which the IC50 is at most 0.1 µM. Turning to `Cc1ccc(OCCCC(C)(C)O)cc1-c1ccnc(NC(=O)c2nnc(CC3CCOCC3)[nH]2)c1` [Example 177, N-(4-(5-((4-hydroxy-4-methylpentyl)oxy)-2-methylphenyl)pyridin-2-yl)-5-((tetrahydro-2H-pyran-4-yl)methyl)-4H-1,2,4-triazole-3-carboxamide], the IC50 is at most 0.1 µM.

The values above are taken from patent publication US12435060B2, “Acylamino bridged heterocyclic compound, and composition and application thereof” (BEIJING SCITECH-MQ PHARMACEUTICALS LIMITED, priority 2019, dated 2025).
